Results from ChEMBL document CHEMBL1144715, “Synthesis, checkpoint kinase 1 inhibitory properties and in vitro antiproliferative activities of new pyrrolocarbazoles” (Bioorg Med Chem, 2008).

Columns and labels:
HT-29 = assay: Cytotoxicity against human HT29 cells after 4 hrs by microculture tetrazolium assay; assay type: functional, cell-based; details: HT-29, 4 h
HCT-116 = assay: Cytotoxicity against human HCT116 cells after 4 hrs by microculture tetrazolium assay; assay type: functional, cell-based; details: HCT-116, 4 h
L1210 = assay: Cytotoxicity against mouse L1210 cells after 4 hrs by microculture tetrazolium assay; assay type: functional, cell-based; details: L1210, 4 h
[1] = target: T1, Serine/threonine-protein kinase Chk1 (Homo sapiens, UniProt O14757); assay: Inhibition of human Chk1
T1 sequence (O14757 whole entry): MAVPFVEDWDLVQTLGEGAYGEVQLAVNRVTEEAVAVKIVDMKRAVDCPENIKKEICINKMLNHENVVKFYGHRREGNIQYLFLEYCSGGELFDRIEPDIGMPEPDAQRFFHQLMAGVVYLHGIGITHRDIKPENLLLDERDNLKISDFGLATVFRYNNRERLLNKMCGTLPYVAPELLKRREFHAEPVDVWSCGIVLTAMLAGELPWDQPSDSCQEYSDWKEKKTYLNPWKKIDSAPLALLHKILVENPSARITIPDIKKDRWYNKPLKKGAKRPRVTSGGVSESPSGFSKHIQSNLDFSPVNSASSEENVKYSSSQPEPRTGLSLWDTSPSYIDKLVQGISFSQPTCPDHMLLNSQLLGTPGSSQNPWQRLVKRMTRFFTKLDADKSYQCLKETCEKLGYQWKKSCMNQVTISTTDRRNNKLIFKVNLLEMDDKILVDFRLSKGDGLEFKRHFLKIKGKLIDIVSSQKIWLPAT

[2] = target: T2, Serine/threonine-protein kinase Chk1 (Homo sapiens) (UniProt O14757); assay: Inhibition of human Chk1 at 10 uM
T2 sequence (whole entry): T1 sequence (O14757 whole entry)

[3] = target: Proto-oncogene tyrosine-protein kinase Src (Homo sapiens) (UniProt P12931); assay: Inhibition of Src at 10 uM after 20 mins
Sequence of Proto-oncogene tyrosine-protein kinase Src (Homo sapiens) (P12931 2-536 limits assumed): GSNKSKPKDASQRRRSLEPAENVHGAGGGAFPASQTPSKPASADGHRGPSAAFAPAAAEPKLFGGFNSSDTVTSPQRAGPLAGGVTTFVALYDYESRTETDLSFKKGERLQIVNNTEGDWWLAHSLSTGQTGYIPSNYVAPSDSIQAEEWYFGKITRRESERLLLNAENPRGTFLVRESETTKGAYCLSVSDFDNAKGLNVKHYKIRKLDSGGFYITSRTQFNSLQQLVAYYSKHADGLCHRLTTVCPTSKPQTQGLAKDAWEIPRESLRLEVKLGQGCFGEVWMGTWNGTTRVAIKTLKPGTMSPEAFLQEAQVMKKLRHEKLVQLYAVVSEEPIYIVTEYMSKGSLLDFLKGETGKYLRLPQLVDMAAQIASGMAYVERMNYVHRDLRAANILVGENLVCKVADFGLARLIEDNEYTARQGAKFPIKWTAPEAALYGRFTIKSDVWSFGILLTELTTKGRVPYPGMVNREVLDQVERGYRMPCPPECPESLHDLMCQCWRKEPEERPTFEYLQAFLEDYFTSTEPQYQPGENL

| IC50 [1] [µM] | inhibition [2] [%] | inhibition [3] [%] | SMILES | IC50 (HT-29) [µM] | IC50 (HCT-116) [µM] | IC50 (L1210) [µM] |
| --- | --- | --- | --- | --- | --- | --- |
|  |  |  | O=C1NC(=O)c2c1c1[nH]cnc1c1[nH]c3ccccc3c21 [GRANULATIMIDE] | 5.7 | 6.1 | 2.8 |
| 0.051 |  |  | O=C1NC(=O)c2c1c1c(c3c2[nH]c2ccccc23)C(=O)NC1 |  |  |  |
|  |  |  | O=C1NC(=O)c2c1c1c3ccccc3[nH]c1n1cncc21 [ISOGRANULATIMIDE] | 13.7 | 13 | 10 |
|  |  |  | O=C1NC(=O)c2c1c1c(O)ccc(O)c1c1[nH]c3ccccc3c21 | 5.6 | 3.1 | 1.1 |
| 14.5 | 63 |  | CC1(C)C(=O)c2c3c(c4c([nH]c5ccccc54)c2C1=O)C(=O)NC3=O | 38.5 | 32.7 | 33 |
|  | 20 | 19 | CC1(C)C(=O)c2c3c(c4c([nH]c5ccccc54)c2C1=O)C(=O)NC3 | 2.5 | 1.7 | 2.2 |
|  |  |  | O=c1ccc(=O)c2c1c1[nH]c3ccccc3c1c1c(=O)[nH]c(=O)c21 | 17.4 | 5.3 | 6.8 |
| 0.024 | 83 |  | O=C1NCc2c1c1c(c3c2[nH]c2ccccc23)C(=O)NC1=O | 0.58 | 8.54 | > 50 |
| 1.92 | 73 | 9 | O=C1NC(=O)c2c1c1c(O)ccc3c1c1c2c2ccccc2n1[C@]1(O3)O[C@H](CO)[C@@H](O)[C@H](O)[C@H]1O | 57.8 | 46.4 | 21.2 |
|  |  |  | O=c1[nH]c(=O)c2c1c1[nH]c3ccccc3c1c1c(=O)[nH]c(=O)c21 [BIS-IMIDE A] | 9.7 |  | 32.7 |
